# Laboratory results taken from ChEMBL document CHEMBL5226282, “TLR2 Agonistic Small Molecules: Detailed Structure-Activity Relationship, Applications, and Future Prospects” (J Med Chem, 2021).
# Columns and labels:
# [1] = target: Toll-like receptor 2 (Homo sapiens, UniProt O60603); assay: Agonist activity at human TLR2 transfected in HEK293 cells; type: cell-based
# [2] = target: Toll-like receptor 1/2 (Homo sapiens, UniProt O60603+Q15399); assay: Agonist activity at TLR2/TLR1 in human THP-1 cells; type: cell-based
# Toll-like receptor 1/2, sequence (O60603 whole entry): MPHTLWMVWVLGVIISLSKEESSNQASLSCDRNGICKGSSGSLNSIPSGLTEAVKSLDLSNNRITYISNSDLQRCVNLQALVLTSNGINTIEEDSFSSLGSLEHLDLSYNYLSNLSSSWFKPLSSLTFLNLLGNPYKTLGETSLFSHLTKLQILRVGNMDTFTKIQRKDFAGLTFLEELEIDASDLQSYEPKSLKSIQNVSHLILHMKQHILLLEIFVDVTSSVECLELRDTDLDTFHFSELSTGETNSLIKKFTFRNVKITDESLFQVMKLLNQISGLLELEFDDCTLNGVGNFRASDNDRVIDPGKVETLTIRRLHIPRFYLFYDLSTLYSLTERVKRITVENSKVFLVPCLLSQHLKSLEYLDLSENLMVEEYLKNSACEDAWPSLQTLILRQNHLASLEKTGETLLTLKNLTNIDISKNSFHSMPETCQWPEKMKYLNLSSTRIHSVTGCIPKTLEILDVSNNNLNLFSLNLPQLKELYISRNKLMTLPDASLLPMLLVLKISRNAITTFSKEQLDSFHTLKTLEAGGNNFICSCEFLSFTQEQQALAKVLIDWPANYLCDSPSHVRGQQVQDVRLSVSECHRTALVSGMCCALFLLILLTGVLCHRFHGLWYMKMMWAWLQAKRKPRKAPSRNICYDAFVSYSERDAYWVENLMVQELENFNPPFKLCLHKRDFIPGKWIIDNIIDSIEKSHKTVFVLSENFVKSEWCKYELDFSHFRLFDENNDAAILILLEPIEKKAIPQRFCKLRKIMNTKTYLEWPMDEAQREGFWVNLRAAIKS
# Toll-like receptor 1/2, sequence (Q15399 whole entry): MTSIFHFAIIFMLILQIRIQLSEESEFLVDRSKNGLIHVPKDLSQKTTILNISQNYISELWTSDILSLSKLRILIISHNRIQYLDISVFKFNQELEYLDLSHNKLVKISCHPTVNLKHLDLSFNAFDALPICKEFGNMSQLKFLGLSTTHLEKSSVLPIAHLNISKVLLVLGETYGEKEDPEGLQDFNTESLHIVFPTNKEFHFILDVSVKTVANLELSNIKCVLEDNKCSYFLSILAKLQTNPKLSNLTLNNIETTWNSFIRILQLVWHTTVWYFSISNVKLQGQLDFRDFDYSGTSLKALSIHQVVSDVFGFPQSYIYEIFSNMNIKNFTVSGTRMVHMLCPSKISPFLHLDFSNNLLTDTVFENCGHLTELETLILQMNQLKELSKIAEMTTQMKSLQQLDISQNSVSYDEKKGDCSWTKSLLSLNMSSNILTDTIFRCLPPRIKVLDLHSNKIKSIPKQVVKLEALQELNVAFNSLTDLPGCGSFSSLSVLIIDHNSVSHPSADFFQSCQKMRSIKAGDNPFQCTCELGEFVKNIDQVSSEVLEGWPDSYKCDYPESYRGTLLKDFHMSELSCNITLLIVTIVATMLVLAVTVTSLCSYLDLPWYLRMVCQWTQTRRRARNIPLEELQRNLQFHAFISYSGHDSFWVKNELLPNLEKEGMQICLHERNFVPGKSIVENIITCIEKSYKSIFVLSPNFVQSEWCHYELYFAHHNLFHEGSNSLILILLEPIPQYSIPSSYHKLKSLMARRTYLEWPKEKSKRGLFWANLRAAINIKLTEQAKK
# [3] = target: Toll-like receptor 1/2 (Mus musculus); assay: Agonist activity at TLR2/TLR1 in mouse Macrophage cell line
# Toll-like receptor 2, sequence (O60603 whole entry): as the sequence (O60603 whole entry) above
Structure (SMILES),EC50 [1] [nM],EC50 [2] [nM],EC50 [3] [µM]
CCCCCCCCCCCC(=O)OC[C@H](CSC[C@@H](N)C(=O)NCCCCN)OC(=O)CCCCCCCCCCC,1040,,
CCCCCCCCCCCC(=O)OC[C@H](CSC[C@@H](N)C(=O)NCCCCCN)OC(=O)CCCCCCCCCCC,1220,,
CCCCCCCCCCCC(=O)OC[C@H](CSC[C@@H](N)C(=O)NCCCn1ccnc1)OC(=O)CCCCCCCCCCC,410,,
CCCCCCCCCCCC(=O)OC[C@H](CSC[C@@H](N)C(=O)NCCOCCP(=O)(O)O)OC(=O)CCCCCCCCCCC,119,,
CCCCCCCCCCCC(=O)OC[C@H](CSC[C@@H](N)C(=O)NC(C)CCC(C)C)OC(=O)CCCCCCCCCCC (some centres not stated),190,,
CCCCCCCCCCCC(=O)OC[C@H](CSC[C@@H](N)C(=O)NCCCS(=O)(=O)O)OC(=O)CCCCCCCCCCC,5560,,
CCCCCCCCCCCC(=O)OC[C@H](CSC[C@@H](N)C(=O)NCCOCCOCCC(F)(F)P(=O)(O)O)OC(=O)CCCCCCCCCCC,31,,
CCCCCCCCCCCC(=O)OC[C@H](CSC[C@@H](N)C(=O)NCCOCCOCCOCCP(=O)(O)O)OC(=O)CCCCCCCCCCC,270,,
CCCCCCCCCCCC(=O)OC[C@H](CSC[C@@H](N)C(=O)NC(CC)COC)OC(=O)CCCCCCCCCCC (some centres not stated),71.8,,
CCCCCCCCCCCC(=O)OC[C@H](CSC[C@@H](N)C(=O)NCCCOCCOCCOCCCN)OC(=O)CCCCCCCCCCC,498,,
CCCCCCCCCCCC(=O)OC[C@H](CSC[C@@H](N)C(=O)NCCOCCOS(=O)(=O)O)OC(=O)CCCCCCCCCCC,61,,
CCCCCCCCCCCC(=O)OC[C@H](CSC[C@@H](N)C(=O)NCCCOCCCCOCCCCN)OC(=O)CCCCCCCCCCC,810,,
O=C(N[C@H]1C[C@@H]1c1ccccc1)[C@@H]1CN(C(=O)Cc2cnc(CC(=O)N3C[C@@H](C(=O)N[C@H]4C[C@@H]4c4ccccc4)[C@H](C(=O)N[C@H]4C[C@@H]4c4ccccc4)C3)cn2)C[C@H]1C(=O)N[C@H]1C[C@@H]1c1ccccc1,,130,> 5
O=C(NCCc1ccc(F)cc1)[C@@H]1CN(C(=O)c2ccc(C(=O)N3C[C@@H](C(=O)NCCc4ccc(F)cc4)[C@H](C(=O)NCCc4ccc(F)cc4)C3)cc2)C[C@H]1C(=O)NCCc1ccc(F)cc1,,50,> 5
O=C(NCCc1ccc(F)cc1)[C@@H]1CN(C(=O)c2ccc(-c3ccc(C(=O)N4C[C@@H](C(=O)NCCc5ccc(F)cc5)[C@H](C(=O)NCCc5ccc(F)cc5)C4)cc3)cc2)C[C@H]1C(=O)NCCc1ccc(F)cc1,,> 5000,> 5
CCCCCCCCCCCCCCCCNC(=O)[C@@H]1CN(C(=O)c2ccc(C(=O)N3C[C@@H](C(=O)N[C@H]4C[C@@H]4c4ccccc4)[C@H](C(=O)N[C@@H]4C[C@H]4c4ccccc4)C3)cc2)C[C@H]1C(=O)N[C@H]1C[C@@H]1c1ccccc1,,0.5,0.0026
C#CCNc1cc(C(=O)N2C[C@@H](C(=O)N[C@H]3C[C@@H]3c3ccccc3)[C@H](C(=O)N[C@H]3C[C@@H]3c3ccccc3)C2)ccc1C(=O)N1C[C@@H](C(=O)N[C@H]2C[C@@H]2c2ccccc2)[C@H](C(=O)N[C@H]2C[C@@H]2c2ccccc2)C1,,15,0.75
N#Cc1ccc([C@H]2C[C@@H]2NC(=O)[C@@H]2CN(C(=O)c3ccc(C(=O)N4C[C@@H](C(=O)N[C@H]5C[C@@H]5c5ccc(C#N)cc5)[C@H](C(=O)N[C@@H]5C[C@H]5c5ccc(C#N)cc5)C4)cc3)C[C@H]2C(=O)N[C@H]2C[C@@H]2c2ccc(C#N)cc2)cc1,,> 5000,> 5
Cc1ccc([C@H]2C[C@@H]2NC(=O)[C@@H]2CN(C(=O)c3ccc(C(=O)N4C[C@@H](C(=O)N[C@H]5C[C@@H]5c5ccc(C)cc5)[C@H](C(=O)N[C@@H]5C[C@H]5c5ccc(C)cc5)C4)cc3)C[C@H]2C(=O)N[C@H]2C[C@@H]2c2ccc(C)cc2)cc1,,360,> 5
O=C(NCCc1ccc(F)cc1)[C@@H]1CN(C(=O)C#CC(=O)N2C[C@@H](C(=O)NCCc3ccc(F)cc3)[C@H](C(=O)NCCc3ccc(F)cc3)C2)C[C@H]1C(=O)NCCc1ccc(F)cc1,,> 5000,> 5

# Results, then the compound that gave them:
EC50 [1] [nM],EC50 [2] [nM],EC50 [3] [µM],Structure (SMILES)
14,,,CCCCCCCCCCCC(=O)OC[C@H](CSC[C@@H](N)C(=O)NCCOCCC(F)(F)P(=O)(O)O)OC(=O)CCCCCCCCCCC
4940,,,CCCCCCCCCCCC(=O)OC[C@H](CSC[C@@H](N)C(=O)N[C@@H](CO)C(=O)NCCOCCOCCOCCC(=O)O)OC(=O)CCCCCCCCCCC
4400,,,CCCCCCCCCCCC(=O)OC[C@H](CSC[C@@H](N)C(=O)NCCCCCCCCCC(=O)O)OC(=O)CCCCCCCCCCC
15500,,,CCCCCCCCCCCC(=O)OC[C@H](CSC[C@@H](N)C(=O)NC(C)(C)CO)OC(=O)CCCCCCCCCCC
19.2,,,CCCCCCCCCCCC(=O)OC[C@H](CSC[C@@H](N)C(=O)N[C@H](C)COCCCP(=O)(O)O)OC(=O)CCCCCCCCCCC
4080,,,CCCCCCCCCCCC(=O)OC[C@H](CSC[C@@H](N)C(=O)NCCc1ccc(Oc2ccccc2)cc1)OC(=O)CCCCCCCCCCC
247,,,CCCCCCCCCCCC(=O)OC[C@H](CSC[C@@H](N)C(=O)NCCCOCCOCCOCCCNC(=O)C(N)CS)OC(=O)CCCCCCCCCCC (some centres not stated)
15300,,,CCCCCCCCCCCC(=O)OC[C@H](CSC[C@@H](N)C(=O)NCCc1ccc(OCCOCCO)cc1)OC(=O)CCCCCCCCCCC
1220,,,CCCCCCCCCCCC(=O)OC[C@H](CSC[C@@H](N)C(=O)NCCCCCCN)OC(=O)CCCCCCCCCCC
1290,,,CCCCCCCCCCCC(=O)OC[C@H](CSC[C@@H](N)C(=O)NCCOCCOCCN)OC(=O)CCCCCCCCCCC
,860,> 5,O=C(N[C@H]1C[C@@H]1c1ccccc1)[C@@H]1CN(C(=O)c2cc(Br)c(C(=O)N3C[C@@H](C(=O)N[C@H]4C[C@@H]4c4ccccc4)[C@H](C(=O)N[C@H]4C[C@@H]4c4ccccc4)C3)cc2Br)C[C@H]1C(=O)N[C@H]1C[C@@H]1c1ccccc1
,> 5000,> 5,O=C(N[C@H]1C[C@@H]1c1ccccc1)[C@@H]1CN(C(=O)c2cccc3c(C(=O)N4C[C@@H](C(=O)N[C@H]5C[C@@H]5c5ccccc5)[C@H](C(=O)N[C@H]5C[C@@H]5c5ccccc5)C4)cccc23)C[C@H]1C(=O)N[C@H]1C[C@@H]1c1ccccc1
,> 5000,> 5,O=C(N[C@H]1C[C@@H]1c1ccccc1)[C@@H]1CN(C(=O)Cc2ccc(CC(=O)N3C[C@@H](C(=O)N[C@H]4C[C@@H]4c4ccccc4)[C@H](C(=O)N[C@H]4C[C@@H]4c4ccccc4)C3)cc2)C[C@H]1C(=O)N[C@H]1C[C@@H]1c1ccccc1
,17,0.36,CCCNC(=O)[C@@H]1CN(C(=O)c2ccc(C(=O)N3C[C@@H](C(=O)N[C@H]4C[C@@H]4c4ccccc4)[C@H](C(=O)N[C@@H]4C[C@H]4c4ccccc4)C3)cc2)C[C@H]1C(=O)N[C@H]1C[C@@H]1c1ccccc1
,> 5000,> 5,O=C(O)[C@@H]1CN(C(=O)c2ccc(C(=O)N3C[C@@H](C(=O)O)[C@H](C(=O)N[C@@H]4C[C@H]4c4ccccc4)C3)cc2)C[C@H]1C(=O)N[C@@H]1C[C@H]1c1ccccc1
,> 5000,> 5,O=C(NCCc1ccc(F)cc1)[C@@H]1CN(C(=O)[C@H]2CC[C@H](C(=O)N3C[C@@H](C(=O)NCCc4ccc(F)cc4)[C@H](C(=O)NCCc4ccc(F)cc4)C3)CC2)C[C@H]1C(=O)NCCc1ccc(F)cc1
,> 5000,> 5,O=C(N[C@H]1C[C@@H]1c1ccccc1)[C@@H]1CN(C(=O)/C=C/C(=O)N2C[C@@H](C(=O)N[C@H]3C[C@@H]3c3ccccc3)[C@H](C(=O)N[C@H]3C[C@@H]3c3ccccc3)C2)C[C@H]1C(=O)N[C@H]1C[C@@H]1c1ccccc1
